For data set [1] the following is noted: cited from earlier work.
Data set [2] can be described thus: Solubility in reverse osmosis (RO) water at room temperature. In kind it is physicochemical. The note with it: g per 100 g solvent. How it is done:
Hereinafter, unless specified otherwise the solubility of material is determined in reverse osmosis (RO) water at room temperature. Where the solubility is expressed as “%” it to be understood as number of grams of material soluble in 100 grams of solvent.

For data set [3] the following is noted: at 50° C.; U.S. patent application Ser. No. 12/612,374; cited from earlier work.

Like-named read-outs stand apart in the source and are kept apart here.

Consider `C=C1C[C@@]23CC[C@H]4[C@@](C)(CCC[C@@]4(C)C(=O)O[C@@H]4O[C@H](CO)[C@@H](O)[C@H](O)[C@H]4O)[C@@H]2CC[C@]1(O[C@@H]1O[C@H](CO)[C@@H](O)[C@H](O[C@@H]2O[C@H](CO)[C@@H](O)[C@H](O)[C@H]2O)[C@H]1O[C@@H]1O[C@H](CO)[C@@H](O)[C@H](O)[C@H]1O)C3` [Form 1, Rebaudioside A], for which the “solubility among Reb A polymorph forms” value in data set [1] (Prakash et al. 2008) is recorded as “lowest solubility”. For the same compound, in data set [1] (in 60 minutes), the “Rate of dissolution in H2O at 25° C.” value is “(<0.2% in”. Take `C=C1C[C@@]23CC[C@H]4[C@@](C)(CCC[C@@]4(C)C(=O)O[C@@H]4O[C@H](CO)[C@@H](O)[C@H](O)[C@H]4O)[C@@H]2CC[C@]1(O[C@@H]1O[C@H](CO)[C@@H](O)[C@H](O[C@@H]2O[C@H](CO)[C@@H](O)[C@H](O)[C@H]2O)[C@H]1O[C@@H]1O[C@H](CO)[C@@H](O)[C@H](O)[C@H]1O)C3` [Form 2, Rebaudioside A]: in data set [1] (in 5 minutes), the “Rate of dissolution in H2O at 25° C.” value is “(<30% in 5”. Turning to `C=C1C[C@@]23CC[C@H]4[C@@](C)(CCC[C@@]4(C)C(=O)O[C@@H]4O[C@H](CO)[C@@H](O)[C@H](O)[C@H]4O)[C@@H]2CC[C@]1(O[C@@H]1O[C@H](CO)[C@@H](O)[C@H](O[C@@H]2O[C@H](CO)[C@@H](O)[C@H](O)[C@H]2O)[C@H]1O[C@@H]1O[C@H](CO)[C@@H](O)[C@H](O)[C@H]1O)C3` [Form 3, Rebaudioside A], the “Rate of dissolution in H2O at 25° C.” value in data set [1] (in 5 minutes) was “High (>30%”. For the compound `C=C1C[C@@]23CC[C@H]4[C@@](C)(CCC[C@@]4(C)C(=O)O[C@@H]4O[C@H](CO)[C@@H](O)[C@H](O)[C@H]4O)[C@@H]2CC[C@]1(O[C@@H]1O[C@H](CO)[C@@H](O)[C@H](O[C@@H]2O[C@H](CO)[C@@H](O)[C@H](O)[C@H]2O)[C@H]1O[C@@H]1O[C@H](CO)[C@@H](O)[C@H](O)[C@H]1O)C3` [Form 4, Rebaudioside A], the “Rate of dissolution in H2O at 25° C.” value in data set [1] (in 5 minutes) is listed as “High (>35%”. As to `C=C1C[C@@]23CC[C@H]4[C@@](C)(CCC[C@@]4(C)C(=O)O[C@@H]4O[C@H](CO)[C@@H](O)[C@H](O)[C@H]4O)[C@@H]2CC[C@]1(O[C@@H]1O[C@H](CO)[C@@H](O)[C@H](O[C@@H]2O[C@H](CO)[C@@H](O)[C@H](O)[C@H]2O)[C@H]1O[C@@H]1O[C@H](CO)[C@@H](O)[C@H](O)[C@H]1O)C3` [Reb A, Rebaudioside A], the results for the water solubility in data set [2] and in data set [2] (listed as rebaudioside A) were greater than 5% and 5.5%, respectively. `C=C1C[C@@]23CC[C@H]4[C@@](C)(CCC[C@@]4(C)C(=O)O[C@@H]4O[C@H](CO)[C@@H](O)[C@H](O)[C@H]4O[C@@H]4O[C@H](CO)[C@@H](O)[C@H](O)[C@H]4O)[C@@H]2CC[C@]1(O[C@@H]1O[C@H](CO)[C@@H](O)[C@H](O[C@@H]2O[C@H](CO)[C@@H](O)[C@H](O)[C@H]2O)[C@H]1O[C@@H]1O[C@H](CO)[C@@H](O)[C@H](O)[C@H]1O)C3` [anhydrous form of Reb D, Rebaudioside D, reference compound]: in data set [3], the solubility entry is “about 0.15%”. In data set [2], Rebaudioside B [Reb B] came in with a water solubility of 0.01%.

The values above are taken from patent US20140171520A1, “HIGHLY SOLUBLE STEVIA SWEETENER” (priority 2011, published 2014).
